From patent publication US9522910B2, “Protein kinase inhibitors (variants), use thereof in treating oncological diseases and a pharmaceutical composition based thereon” (Obshchestvo s ogranichennoy otvetstvennostyou “Fusion …, priority 2011, dated 2016)

Legend:
[1] = tested on: Ba/F3 cells expressing either native or mutant (T315I) Bcr-Abl kinase; assay: Animal model of chronic myelogenous leukemia (Ba/F3 Bcr-Abl tumors in nude balb/c mice); format: in vivo, mouse; conditions: 30 mg/kg, oral gavage once daily, 10 days; ratio of mean tumor volume in therapeutic and control groups
Protocol: Ba/F3 cells expressing either native or mutant (T315I) Bcr-Abl kinase, were inoculated in the right flank of nude balb/c mouse (100 μl of cell suspension in serum-free medium, 3×10^6 cells/ml). Mice were randomly assigned to the groups upon tumor volume of ˜500 mm^3. Once daily vehicle (0.5% methylcellulose I in water) was given using oral gavage to the control group, and substance suspension was given to therapeutic group during 10 days. In a typical experiment malignant cells (e.g., K562 cells, or Ba/F3 cells, expressing native of mutated Bcr-Abl kinase) are injected to mouse with reduced immunity (e.g. nude or SCID mice). Tumor volume (mm^3) was calculated as follows: V=L×W^2×0.5, where L—tumor length in mm, W—width in mm. Ratio of the mean tumor volume in therapeutic and control groups (% T/C) was used to evaluate efficacy of tumor growth inhibition. Obtained data was subjected to statistical reliability Dunnet test. Efficacies of tested compounds in 30 mg/kg dose are depicted in Table 2.

[2] = tested on: HCT116 cells; assay: Animal model of solid intestine tumors (HCT116 tumors in SCID mice); format: in vivo, mouse; conditions: 30 mg/kg; end of the therapy (20 days); ratio of mean tumor volume in therapeutic and control groups
Protocol: 200 μl of HCT116 cells (2.5×10^7 cells/ml) were subcutaneously injected in right flank of SCID mice. When tumor volume achieved ˜200 mm^3 mice were randomized and separated into two groups: control and therapeutic. Control group mice received 0.3 ml of 0.5% methylcellulose solution, therapeutic group received 0.5% methylcellulose with suspended therapeutic compound (30 mg/kg). Twice a week animals animal weight, toxic effects and tumor volume were measured. Experiment was stopped upon tumor reached volume of 1200 mm3 of when animal lost 10% of body weight, or 20% of body weight upon 2 consecutive weightings. Ratio of the mean tumor volume in therapeutic and control groups (% T/C) was used to evaluate efficacy of tumor growth inhibition upon the end of the therapy (20 days). Obtained data was subjected to statistical reliability Dunnet test. Efficacies of tested compounds in 30 mg/kg dose are depicted in Table 4.

[3] = biological target: Abl (Homo sapiens (Human), UniProt P00519); assay: Kinase inhibition assay (33P transfer to plate-bound substrate), Abl; format: biochemical; conditions: compound concentration that causes 2-times reduction of kinase enzymatic activity
Excerpt: (§1) Kinases as either kinase domain or full construct fused to glutathione S-transferase (GST) or poly-Histidine tagged fusion proteins were expressed in baculovrius-infected insect cells (e.g. Sf21) or in E. Coli. They are purified to near homogeneity by affinity chromatography as previously described (Lehr et al., Production, purification and characterization of non-myristylated human T-cell protein tyrosine kinase in a baculovirus expression system, Gene, 1996; 169(2), 275-279; Gish et al., Bacterial expression, purification and preliminary kinetic description of the kinase domain of v-fps, Protein Eng. 8, 6, 609-614). In some instances, kinases are co-expressed or mixed with purified or partially purified regulatory polypeptides prior to measurement of activity.
(§2) Kinase activity and inhibition was measured by established protocols (see e.g. Braunwalder et al., A Solid-Phase Assay for the Determination of Protein Tyrosine Kinase Activity of c-src Using Scintillating Microtitration Plates, Anal Biochem. 234, 1, 23-26). In such cases, the transfer of ^33PO4 from ATP to the synthetic substrates poly(Glu, Tyr) 4:1 or poly(Arg, Ser) 3:1 attached to the bioactive surface of microtiter plates is taken as a measure of enzyme activity. After an incubation period, the amount of phosphate transferred is measured by first washing the plate with 0.5% phosphoric acid, adding liquid scintillant, and then counting in a liquid scintillation detector. The IC50 is determined by the concentration of compound that causes a 50% reduction in the amount of ^33P incorporated onto the substrate bound to the plate.

[4] = biological target: Abl (T315I) (Homo sapiens (Human), UniProt P00519, T315I); assay: Kinase inhibition assay (33P transfer to plate-bound substrate), Abl (T315I); format: biochemical; conditions: compound concentration that causes 2-times reduction of kinase enzymatic activity
Excerpt: as §1, §2

[5] = tested on: K562 human chronic myelogenous leukemia cells; assay: Antiproliferative activity on K562 cells (MTT); format: cell-based; conditions: K562, 72 h, compound concentration that causes 2-times reduction of viable cells, 3 days
Protocol: Moreover, antiproliferative activity of the compounds of the present invention can be studied on K562 human chronic myelogenous leukemia cells.
Human myelogenous leukemia K562 cells K562 were cultivated in RPMI 1640 growth medium. K562 cells were transferred to 96-well plated in duplicated (final concentration 2×10^4 cells/ml) and testing compound solution in growth medium was added at different concentrations (final volume is 100 μl per well). Solid compounds were first dissolved in DMSO, then the solution was diluted with DMSO to necessary concentration, mixed with equal volume of growth medium and was transferred to cell plates. The final compound concentrations of compounds was 0.5 nM to 10 μM. DMSO at same percentage is used as control. After compound was incubated with cells for 3 days, the numbers of active cells are measured. It was achieved by removing old medium, addition of 100 μl of fresh medium and 20 μl MIT solution containing 5 mg/ml PBS. Plates was incubated for 2 h at 37° C., then 100 μl DMSO was added at each well and stirred for 1 min. Then the absorbance was measured at 570 nm and percent of proliferation inhibition related to the control (without testing compounds) was determined.

[6] = tested on: A549 cells; assay: Animal model of non-small cell lung cancer (A549 tumors in nude mice); format: in vivo, mouse; conditions: 30 mg/kg, oral gavage; end of the therapy (20 days); ratio of mean tumor volume in therapeutic and control groups
Protocol: Male nude mice were used for this experiment. A549 cells (1×10^7) in 0.2 ml of Matrigel (BD Pharmingen) solution were injected in left mice leg upon ketamine-xylazine anesthesia. After a week of cell inoculation mice were separated into control and therapeutic groups. Control group mice received 0.3 ml of 0.5% methylcellulose solution, therapeutic group received 0.3 ml of 0.5% methylcellulose with suspended therapeutic compound (30 mg/kg). Tumor volume (mm^3) was calculated as follows: V=L×W^2×0.5. Compounds were administered using oral gavage. Treatment continued for 20 days. Ratio of the mean tumor volume in therapeutic and control groups (% T/C) was used to evaluate efficacy of tumor growth inhibition upon the end of the therapy (20 days). Obtained data was subjected to statistical reliability Dunnet test. Efficacies of tested compounds in 30 mg/kg dose are depicted in Table 5.

[7] = tested on: MV4-11 cells; assay: Animal model of acute myelogenous leukemia (MV4-11 tumors in SCID mice); format: in vivo, mouse; conditions: 30 mg/kg; end of the therapy (20 days); ratio of mean tumor volume in therapeutic and control groups
Protocol: MV4-11 cells (1×10^7 in serum-free medium) were subcutaneously injected in right flank of SCID female mice. When tumor volume achieved ˜200 mm^3 mice were separated into two groups: control and therapeutic. Control group mice received 0.3 ml of 0.5% methylcellulose solution, therapeutic group received 0.3 ml of 0.5% methylcellulose with suspended therapeutic compound. Tumor volume (mm^3) was calculated as follows: V=L×W^2×0.5, where L—tumor length in mm, W—width in mm. Ratio of the mean tumor volume in therapeutic and control groups (% T/C) on the end of the therapy (20 days) was used to evaluate efficacy of tumor growth inhibition. Obtained data was subjected to statistical reliability Dunnet test. Efficacies of tested compounds in 30 mg/kg dose are depicted in Table 3.

[8] = in vivo; cited from earlier work

Cc1ccc(C(=O)Nc2ccc(CN3CCN(C)CC3)c(C(F)(F)F)c2)cc1C#Cc1nnc2ccccn12 [drawing 121]
% T/C [1]: <40%

Cc1ccc(C(=O)Nc2ccc(CN3CC[C@@H](N(C)C)C3)c(C(F)(F)F)n2)cc1C#Cn1cnc2ccccc21 [drawing 124]
% T/C [1]: <40%

Cc1ccc(C(=O)Nc2ccc(CN3CCN(C)CC3)c(C(F)(F)F)c2)cc1C#Cc1nnc2cc(F)ccn12 [drawing 137]
% T/C [2]: <40%

Cc1ccc(C(=O)Nc2ccc(CN3CC[C@@H](N(C)C)C3)c(C(F)(F)F)n2)cc1C#Cn1cnc2ccccc21 [drawing 136]
% T/C [2]: <40%

Cc1ccc(C(=O)Nc2ccc(CN3CCN(C)CC3)c(C(F)(F)F)c2)cc1C#Cc1nnc2cc(C(=O)O)cnn12
IC50 [3]: < 20 nM | IC50 [4]: < 20 nM | IC50 [5]: < 100 nM

Cc1ccc2nnc(C#Cc3cc(C(=O)Nc4ccc(CN5CCN(C)CC5)c(C(F)(F)F)c4)ccc3C)n2n1 [drawing 144]
% T/C [6]: <40%

Cc1ccc(C(=O)Nc2ccc(CN3CCN(C)CC3)c(C(F)(F)F)c2)cc1C#Cc1nnc2cccc(Cl)n12 [drawing 128]
% T/C [7]: <40%

Cc1ccc(C(=O)Nc2ccc(CN3CC[C@@H](N(C)C)C3)c(C(F)(F)F)c2)cc1C#Cn1cnc2ccccc21 [drawing 135]
% T/C [2]: <40%

Cc1ccc(C(=O)Nc2ccc(CN3CC[C@@H](N(C)C)C3)c(C(F)(F)F)c2)cc1C#Cn1cnc2ccccc21 [drawing 141]
% T/C [6]: <40%

Cc1ccc(C(=O)Nc2ccc(CN3CC[C@@H](N(C)C)C3)c(C(F)(F)F)c2)cc1C#Cn1cnc2ccccc21 [drawing 123]
% T/C [1]: <40%

Cc1ccc(C(=O)Nc2ccc(CN3CCN(C)CC3)c(C(F)(F)F)c2)cc1C#Cc1nnc2ccccn12 [drawing 139]
% T/C [6]: <40%

Cc1ccc(C(=O)Nc2ccc(CN3CCN(C)CC3)c(C(F)(F)F)c2)cc1C#Cc1cnc2cccnn12 [ponatinib]
bioavailability [8]: 20%

Cc1ccc(C(=O)Nc2ccc(CN3CCN(C)CC3)c(C(F)(F)F)c2)cc1C#Cc1nnc2ccccn12 [drawing 127]
% T/C [7]: <40%

Cc1ccc(C(=O)Nc2ccc(CN3CCN(C)CC3)c(C(F)(F)F)c2)cc1C#Cc1nnc2cc(C(N)=O)ccn12
IC50 [3]: < 20 nM | IC50 [4]: < 20 nM | IC50 [5]: < 100 nM

Cc1ccc(C(=O)Nc2ccc(CN3CCN(C)CC3)c(C(F)(F)F)c2)cc1C#Cc1nnc2cc(F)ccn12 [drawing 125]
% T/C [1]: <40%

Cc1ccc(C(=O)Nc2ccc(CN3CCN(C)CC3)c(C(F)(F)F)c2)cc1C#Cc1nnc2cccc(Cl)n12 [drawing 140]
% T/C [6]: <40%

CN1CCN(Cc2ccc(NC(=O)c3ccc(F)c(C#Cc4nnc5ccccn45)c3)cc2C(F)(F)F)CC1
IC50 [3]: < 20 nM | IC50 [4]: < 20 nM | IC50 [5]: < 100 nM

Cc1ccc(C(=O)Nc2ccc(CN3CCN(C)CC3)c(C(F)(F)F)c2)cc1C#Cc1nnc2cccc(Cl)n12 [drawing 122]
% T/C [1]: <40%

Cc1ccc(C(=O)Nc2ccc(CN3CC[C@@H](N(C)C)C3)c(C(F)(F)F)n2)cc1C#Cn1cnc2ccccc21 [drawing 142]
% T/C [6]: <40%

Cc1ccc(C(=O)Nc2ccc(CN3CC[C@@H](N(C)C)C3)c(C(F)(F)F)n2)cc1C#Cn1cnc2ccccc21 [drawing 130]
% T/C [7]: <40%

Cc1nc(Nc2ncc(C(=O)Nc3c(C)cccc3Cl)s2)cc(N2CCN(CCO)CC2)n1 [dasatinib]
bioavailability [8]: 14-34%

Cc1ccc(C(=O)Nc2ccc(CN3CCN(C)CC3)c(C(F)(F)F)c2)cc1C#Cc1nnc2cccnn12
IC50 [3]: < 20 nM | IC50 [4]: < 20 nM | IC50 [5]: < 100 nM

Cc1ccc(C(=O)Nc2ccc(CN3CCN(C)CC3)c(C(F)(F)F)c2)cc1C#Cn1cnc2cc(C(=O)O)ccc21
IC50 [3]: < 20 nM | IC50 [4]: < 20 nM | IC50 [5]: < 100 nM

Cc1ccc2nnc(C#Cc3cc(C(=O)Nc4ccc(CN5CCN(C)CC5)c(C(F)(F)F)c4)ccc3C)n2n1 [drawing 132]
% T/C [7]: <40%

Cc1cn(-c2cc(NC(=O)c3ccc(C)c(Nc4nccc(-c5cccnc5)n4)c3)cc(C(F)(F)F)c2)cn1 [nilotinib]
bioavailability [8]: 30%

Cc1ccc(C(=O)Nc2ccc(CN3CCN(C)CC3)c(C(F)(F)F)c2)cc1C#Cc1nnc2cccc(Cl)n12 [drawing 134]
% T/C [2]: <40%

Cc1ccc(C(=O)Nc2ccc(CN3CCN(C)CC3)c(C(F)(F)F)c2)cc1C#Cc1nnc2cc(C(=O)O)ccn12
IC50 [3]: < 20 nM | IC50 [4]: < 20 nM | IC50 [5]: < 100 nM

Cc1ccc(C(=O)Nc2ccc(CN3CCN(C)CC3)c(C(F)(F)F)c2)cc1C#Cc1nnc2cc(F)ccn12 [drawing 131]
% T/C [7]: <40%

Cc1ccc(C(=O)Nc2ccc(CN3CCN(C)CC3)c(C(F)(F)F)c2)cc1C#Cc1nnc2ccccn12 [drawing 113]
IC50 [3]: < 20 nM | IC50 [4]: < 20 nM | IC50 [5]: < 100 nM

Cc1ccc(C(=O)Nc2ccc(CN3CC[C@@H](N(C)C)C3)c(C(F)(F)F)c2)cc1C#Cn1cnc2ccccc21 [drawing 129]
% T/C [7]: <40%

Cc1ccc2nnc(C#Cc3cc(C(=O)Nc4ccc(CN5CCN(C)CC5)c(C(F)(F)F)c4)ccc3C)n2n1 [drawing 126]
% T/C [1]: <40%

Cc1ccc(C(=O)Nc2ccc(CN3CCN(C)CC3)c(C(F)(F)F)c2)cc1C#Cc1nnc2ccccn12 [drawing 133]
% T/C [2]: <40%

Cc1ccc(C(=O)Nc2ccc(CN3CCN(C)CC3)c(C(F)(F)F)c2)cc1C#Cc1nnc2cc(F)ccn12 [drawing 143]
% T/C [6]: <40%

Cc1ccc2nnc(C#Cc3cc(C(=O)Nc4ccc(CN5CCN(C)CC5)c(C(F)(F)F)c4)ccc3C)n2n1 [drawing 138]
% T/C [2]: <40%
